As usually defined, the Solubility is how much of the substance goes into solution per volume. A low value points to little dissolved substance.

The text below walks through data of patent US20240116985A1, “STAPLED PEPTIDES AND METHODS THEREOF” (priority 2020, published 2024).

In brackets after ≈: the same amount, converted by molar mass. Like-named read-outs stand apart in the source and are kept apart here.

The target of series [1] is T1, beta-catenin/TCF4 engagement (Homo sapiens, UniProt P35222).
T1 construct: expressed in transfected cells; host or cells: HEK293
T1 sequence (P35222 1-781): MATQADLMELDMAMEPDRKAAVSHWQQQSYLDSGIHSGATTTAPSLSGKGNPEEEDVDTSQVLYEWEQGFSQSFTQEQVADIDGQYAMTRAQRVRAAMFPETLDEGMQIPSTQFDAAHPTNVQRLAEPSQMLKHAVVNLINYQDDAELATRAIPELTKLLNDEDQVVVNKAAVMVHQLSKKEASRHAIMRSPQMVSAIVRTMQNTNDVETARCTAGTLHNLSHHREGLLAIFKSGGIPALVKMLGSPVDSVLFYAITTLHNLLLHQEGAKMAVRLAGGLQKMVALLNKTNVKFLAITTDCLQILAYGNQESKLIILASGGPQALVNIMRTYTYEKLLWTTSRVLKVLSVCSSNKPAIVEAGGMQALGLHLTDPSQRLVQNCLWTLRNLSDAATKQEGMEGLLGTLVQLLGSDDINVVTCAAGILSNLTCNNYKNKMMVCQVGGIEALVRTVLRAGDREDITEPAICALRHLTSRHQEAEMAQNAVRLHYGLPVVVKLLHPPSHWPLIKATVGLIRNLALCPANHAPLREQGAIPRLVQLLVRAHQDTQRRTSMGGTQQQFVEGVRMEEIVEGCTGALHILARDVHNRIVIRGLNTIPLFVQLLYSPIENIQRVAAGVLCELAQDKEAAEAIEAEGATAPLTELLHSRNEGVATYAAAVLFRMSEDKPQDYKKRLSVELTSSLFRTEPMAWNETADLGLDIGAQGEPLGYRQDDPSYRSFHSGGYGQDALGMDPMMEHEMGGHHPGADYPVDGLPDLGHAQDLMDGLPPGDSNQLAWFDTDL
Briefly: Nano-BRET target engagement assay (B-cat-Halo & TCF4-Luc in HEK293 cells). It counts as cell-based. Conditions: for IC50: absolute IC50, read-out: NanoBRET Abs IC50.

A further series is described as follows: Solubility in PBS. Type of series: physicochemical. The procedure, abridged:
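Read-out is the HPLC peak area of the supernatant from ultracentrifuged PBS solution, scaled against a 50 μM peptide DMSO injection; value reported as [(PBS area)/(DMSO area)]*50 uM.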

The nature of the next series: CHI Log D procedure. Type of series: physicochemical. Conditions: pH 7.4.
In series [2] the target is T2, full-length beta-Catenin (Uniprot ID P35222) (Homo sapiens, UniProt P35222).
T2 construct: 10 nM full-length beta-Catenin (Uniprot ID P35222)
T2 sequence (P35222 1-781): T1 sequence (P35222 1-781)
Briefly: Fluorescence polarization IC50 (beta-catenin / 5FAM-TCF4 10-53 competition). Type of series: binding. On the technique in general: Polarisation of emitted light reports the rotation of a fluorescent probe.

Setting [3] is: fluorescence polarization, read-out: beta-Catenin FP IC50.

`CC(=O)N1CCC[C@]12CC=CCCCC1(CCCC=CCCCOC(=O)N3CC[C@@](C(=O)N[C@@H](Cc4ccccc4)C(=O)N[C@@H](Cc4csc5ccccc45)C(=O)N[C@@H](CCC(N)=O)C(N)=O)(C3)NC(=O)[C@H](CC(N)=O)NC(=O)[C@H](Cc3ccccc3)NC(=O)[C@H](C)NC(=O)[C@H](C)NC(=O)[C@H](CCC(=O)O)NC(=O)[C@H](CC(=O)O)NC1=O)NC(=O)[C@H](CC(C)(C)C)NC(=O)[C@H](CC(=O)O)NC2=O` (stereo partly drawn) [I-684, Ac-PL3-Asp-Npg-B5-Asp-Glu-Ala-Ala-Phe-Asn-PyrS2-Phe-BztA-Gln-NH2]: the values for the IC50 in series [1], in series [2] (setting [3]) and in series [2] (read-out: FP EC50) were 14300 nM, 15 nM and 15 nM, respectively. Moreover, in “Solubility in PBS”, the “Solubility” value was determined as 44 µM (≈ 84.8 µg/mL). Moreover, in “CHI Log D procedure”, the “CHI Log D” value is on record as 2.037.
Turning to `CC(=O)N1CCC[C@]12CC=CCCCC1(CCCC=CCCCOC(=O)N3CC[C@@](C(=O)N[C@@H](Cc4ccccc4)C(=O)N[C@@H](Cc4csc5ccccc45)C(=O)N[C@@H](CCC(N)=O)C(N)=O)(C3)NC(=O)[C@H](CC(N)=O)NC(=O)[C@H](Cc3ccccc3)NC(=O)[C@H](C)NC(=O)[C@H](C)NC(=O)[C@H](CCC(=O)O)NC(=O)[C@H](CC(=O)O)NC1=O)NC(=O)[C@H](CC(C)(C)C)NC(=O)[C@H](CC(=O)O)NC2=O` (stereo partly drawn) [I-685, Ac-PL3-Asp-Npg-B5-Asp-Glu-Ala-Ala-Phe-Asn-PyrS2-Phe-BztA-Gln-NH2], the IC50 in series [1] came to 19400 nM; in series [2] (setting [3]), 25 nM; in series [2] (read-out: FP EC50) it was 25 nM. Besides, the “Solubility” value in the series “Solubility in PBS” is 44 µM (≈ 84.8 µg/mL). Further, the “CHI Log D” value in the series “CHI Log D procedure” stood at 2.1.
Regarding `CC(=O)N1CCC[C@]12CC=CCCCC1(CCCC=CCCCOC(=O)N3CC[C@@](C(=O)N[C@@H](Cc4ccsc4)C(=O)N[C@@H](Cc4csc5ccccc45)C(=O)N[C@@H](CCC(N)=O)C(N)=O)(C3)NC(=O)[C@H](CC(N)=O)NC(=O)[C@H](Cc3ccccc3)NC(=O)[C@H](C)NC(=O)[C@H](C)NC(=O)[C@H](CC(=O)O)NC(=O)[C@H](CC(=O)O)NC1=O)NC(=O)[C@H](CC(C)C)NC(=O)[C@H](CC(=O)O)NC2=O` (stereo partly drawn) [I-688, Ac-PL3-Asp-Leu-B5-Asp-Asp-Ala-Ala-Phe-Asn-PyrS2-3Thi-BztA-Gln-NH2], the IC50 in series [1] turned out to be 30100 nM; in series [2] (setting [3]), 6 nM; in series [2] (read-out: FP EC50), 6 nM. Moreover, the “Solubility” value in “Solubility in PBS” came to 46 µM (≈ 87.6 µg/mL). The “CHI Log D” value in the series “CHI Log D procedure” worked out at 1.924.
As for `CC(=O)N1CCC[C@]12CC=CCCCC1(CCCC=CCCCOC(=O)N3CC[C@@](C(=O)N[C@@H](Cc4ccsc4)C(=O)N[C@@H](Cc4csc5ccccc45)C(=O)N[C@@H](CCC(N)=O)C(N)=O)(C3)NC(=O)[C@H](CC(N)=O)NC(=O)[C@H](Cc3ccccc3)NC(=O)[C@H](C)NC(=O)[C@H](C)NC(=O)[C@H](CC(=O)O)NC(=O)[C@H](CC(=O)O)NC1=O)NC(=O)[C@H](CC(C)C)NC(=O)[C@H](CC(=O)O)NC2=O` (stereo partly drawn) [I-689, Ac-PL3-Asp-Leu-B5-Asp-Asp-Ala-Ala-Phe-Asn-PyrS2-3Thi-BztA-Gln-NH2], the results for the IC50 in series [1], in series [2] (setting [3]) and in series [2] (read-out: FP EC50) were 33900 nM, 11 nM and 11 nM, respectively. Moreover, the “Solubility” value in the series “Solubility in PBS” was determined as 50 µM (≈ 95.2 µg/mL). Further, the “CHI Log D” value in the series “CHI Log D procedure” is reported as 1.957.
For the compound `CC(=O)N1CCC[C@]12CC=CCCCC1(CCCC=CCCCOC(=O)N3CC[C@@](C(=O)N[C@@H](Cc4ccsc4)C(=O)N[C@@H](Cc4csc5ccccc45)C(=O)N[C@@H](CCC(N)=O)C(N)=O)(C3)NC(=O)[C@H](CC(N)=O)NC(=O)[C@H](Cc3ccccc3)NC(=O)[C@H](C)NC(=O)[C@H](C)NC(=O)[C@H](CCC(=O)O)NC(=O)[C@H](CC(=O)O)NC1=O)NC(=O)[C@H](CC(C)(C)C)NC(=O)[C@H](CC(=O)O)NC2=O` (stereo partly drawn) [I-690, Ac-PL3-Asp-Npg-B5-Asp-Glu-Ala-Ala-Phe-Asn-PyrS2-3Thi-BztA-Gln-NH2], the IC50 was 17800 nM in series [1], 7 nM in series [2] (setting [3]) and 7 nM in series [2] (read-out: FP EC50). Further, the “Solubility” value in the series “Solubility in PBS” was determined as 44 µM (≈ 85 µg/mL). The “CHI Log D” value in the series “CHI Log D procedure” came to 2.013.
For the compound `CC(=O)N1CCC[C@]12CC=CCCCC1(CCCC=CCCCOC(=O)N3CC[C@@](C(=O)N[C@@H](Cc4ccsc4)C(=O)N[C@@H](Cc4csc5ccccc45)C(=O)N[C@@H](CCC(N)=O)C(N)=O)(C3)NC(=O)[C@H](CC(N)=O)NC(=O)[C@H](Cc3ccccc3)NC(=O)[C@H](C)NC(=O)[C@H](C)NC(=O)[C@H](CCC(=O)O)NC(=O)[C@H](CC(=O)O)NC1=O)NC(=O)[C@H](CC(C)(C)C)NC(=O)[C@H](CC(=O)O)NC2=O` (stereo partly drawn) [I-691, Ac-PL3-Asp-Npg-B5-Asp-Glu-Ala-Ala-Phe-Asn-PyrS2-3Thi-BztA-Gln-NH2], the IC50 in series [1] came to 17000 nM; in series [2] (setting [3]), 9 nM; in series [2] (read-out: FP EC50) it was 9 nM. Moreover, in “Solubility in PBS”, the “Solubility” value was 45 µM (≈ 86.9 µg/mL). Further, the “CHI Log D” value in “CHI Log D procedure” is 2.068.
On to `CC(=O)N1CCC[C@]12CC=CCCCC1(CCCC=CCCCOC(=O)N3CC[C@@](C(=O)N[C@@H](Cc4ccccc4)C(=O)N[C@@H](Cc4csc5ccccc45)C(=O)N[C@@H](Cc4c[nH]cn4)C(N)=O)(C3)NC(=O)[C@H](CC(N)=O)NC(=O)[C@H](Cc3ccccc3)NC(=O)[C@H](C)NC(=O)[C@H](C)NC(=O)[C@H](CCC(=O)O)NC(=O)[C@H](CC(=O)O)NC1=O)NC(=O)[C@H](CC(C)(C)C)NC(=O)[C@H](CC(=O)O)NC2=O` (stereo partly drawn) [I-692, Ac-PL3-Asp-Npg-B5-Asp-Glu-Ala-Ala-Phe-Asn-PyrS2-Phe-BztA-His-NH2], for which the IC50 was found to be 25600 nM in series [1], 9 nM in series [2] (setting [3]) and 9 nM in series [2] (read-out: FP EC50). In addition, the “Solubility” value in “Solubility in PBS” is 38 µM (≈ 73.5 µg/mL). Further, in the series “CHI Log D procedure”, the “CHI Log D” value came out at 2.12.
On to `CC(=O)N1CCC[C@]12CC=CCCCC1(CCCC=CCCCOC(=O)N3CC[C@@](C(=O)N[C@@H](Cc4ccccc4)C(=O)N[C@@H](Cc4csc5ccccc45)C(=O)N[C@@H](Cc4c[nH]cn4)C(N)=O)(C3)NC(=O)[C@H](CC(N)=O)NC(=O)[C@H](Cc3ccccc3)NC(=O)[C@H](C)NC(=O)[C@H](C)NC(=O)[C@H](CCC(=O)O)NC(=O)[C@H](CC(=O)O)NC1=O)NC(=O)[C@H](CC(C)(C)C)NC(=O)[C@H](CC(=O)O)NC2=O` (stereo partly drawn) [I-693, Ac-PL3-Asp-Npg-B5-Asp-Glu-Ala-Ala-Phe-Asn-PyrS2-Phe-BztA-His-NH2], for which the IC50 in series [1] was found to be 28500 nM; in series [2] (setting [3]) it was 12 nM; in series [2] (read-out: FP EC50) it was 12 nM. Besides, the “Solubility” value in the series “Solubility in PBS” worked out at 34 µM (≈ 65.8 µg/mL). For the same compound, the “CHI Log D” value in the series “CHI Log D procedure” amounted to 2.184.
Regarding `CC(=O)N1CCC[C@]12CC=CCCCC1(CCCC=CCCCOC(=O)N3CC[C@@](C(=O)N[C@@H](Cc4ccsc4)C(=O)N[C@@H](Cc4csc5ccccc45)C(=O)N[C@@H](Cc4c[nH]cn4)C(N)=O)(C3)NC(=O)[C@H](CC(N)=O)NC(=O)[C@H](Cc3ccccc3)NC(=O)[C@H](C)NC(=O)[C@H](C)NC(=O)[C@H](CC(=O)O)NC(=O)[C@H](CC(=O)O)NC1=O)NC(=O)[C@H](CC(C)(C)C)NC(=O)[C@H](CC(=O)O)NC2=O` (stereo partly drawn) [I-694, Ac-PL3-Asp-Npg-B5-Asp-Asp-Ala-Ala-Phe-Asn-PyrS2-3Thi-BztA-His-NH2], in series [1] (HEK293, @ 10 uM, read-out: NanoBRET % inh @ 10 uM), the inhibition at 10 µM was 32.7%. The “Solubility” value in “Solubility in PBS” came out at 40 µM (≈ 77.1 µg/mL). For the same compound, the “CHI Log D” value in “CHI Log D procedure” is 2.073. Besides, the IC50 in series [2] (setting [3]) stood at 5 nM.
